For three molecules, IC50 results are on record in patent US10172868B2, “Substituted quinazolines for inhibiting kinase activity” (NeuPharma, Inc., priority 2013, dated 2019).

Structures are written as SMILES.

One test has as its target KDR (VEGFR2) (Homo sapiens (Human), UniProt P35968). In words: Z'-LYTE kinase inhibition assay, KDR. Format: biochemical. The note with it: read-out: IC50 against KDR. As for the experimental part:
(§1) Inhibitory activities of compounds against BTK, EGFR and EGFR mutants (EGFR L858R, EGFR T790M, EGFR L858R/T790M), FGFR1, FGFR2, JAK2, JAK3 and KDR were measured by Invitrogen using Z'-LYTE® Method as briefly described in the following.
(§2) Test Compounds are screened in 1% DMSO (final) in the well. For 10 point titrations, 3-fold serial dilutions are conducted from the starting concentration. All ATP Solutions are diluted to a 4× working concentration in Kinase Buffer (50 mM HEPES pH 7.5, 0.01% BRIJ-35, 10 mM MgCl2, 1 mM EGTA). Peptide/Kinase Mixtures are diluted to a 2× working concentration in the appropriate Kinase Buffers as described below.
(v) Peptide/Kinase Mixtures for Measurement of KDR (VEGFR2):
The 2×KDR (VEGFR2)/Tyr 01 mixture is prepared in 50 mM HEPES pH 7.5, 0.01% BRIJ-35, 10 mM MgCl2, 1 mM EGTA. The final 10 μL Kinase Reaction consists of 0.5-11.7 ng KDR (VEGFR2) and 2 μM Tyr 01 in 50 mM HEPES pH 7.5, 0.01% BRIJ-35, 10 mM MgCl2, 1 mM EGTA. After the 1 hour Kinase Reaction incubation, 5 μL of a 1:256 dilution of Development Reagent B is added.
Reaction starts by 30-second shaking of mixture consisting of 2.5 μL 4× test compound, […] 2× kinase reaction mixture and 2.5 μL 4×ATP Solution on Bar-coded Corning, low volume NBS, black 384-well plate (Corning Cat. #3676). Then the mixture is incubated for 60-minute at room temperature for the kinase reaction, followed by addition of 5 μL of a 1:1024 dilution of development reagent A and 30-second plate shake. The mixture is then incubated for another 60-minute at room temperature for development reaction. Finally fluorescence is read by plate reader.
To determine IC50 of a compound against EGFR, EGFR mutant and other kinases, a series of concentrations of the compound were tested for the inhibition. […] The scale utilized in Table 4 is as follows: +++ less than 100 nM, ++ 100-500 nM and + greater than 500 nM.

The target of a further test is FGFR2 (Homo sapiens (Human), UniProt P21802). In words: Z'-LYTE kinase inhibition assay, FGFR2. Format: biochemical. The note with it: read-out: IC50 against FGFR2. The procedure: as §1, §2
(v) Peptide/Kinase Mixtures for Measurement of FGFR2:
The 2×FGFR2/Tyr 04 mixture is prepared in 50 mM HEPES pH 7.5, 0.01% BRIJ-35, 10 mM MgCl2, 4 mM MnCl2, 1 mM EGTA, 2 mM DTT. The final 10 μL Kinase Reaction consists of 0.19-2.36 ng FGFR2 and 2 μM Tyr 04 in 50 mM HEPES pH 7.5, 0.01% BRIJ-35, 10 mM MgCl2, 2 mM MnCl2, 1 mM EGTA, 1 mM DTT. After the 1 hour Kinase Reaction incubation, 5 μL of a 1:64 dilution of Development Reagent B is added.
Reaction starts by 30-second shaking of mixture consisting of 2.5 μL 4× test compound, […] 2× kinase reaction mixture and 2.5 μL 4×ATP Solution on Bar-coded Corning, low volume NBS, black 384-well plate (Corning Cat. #3676). […] Finally fluorescence is read by plate reader. […]

Sequence of KDR (VEGFR2) (P35968 20-1356): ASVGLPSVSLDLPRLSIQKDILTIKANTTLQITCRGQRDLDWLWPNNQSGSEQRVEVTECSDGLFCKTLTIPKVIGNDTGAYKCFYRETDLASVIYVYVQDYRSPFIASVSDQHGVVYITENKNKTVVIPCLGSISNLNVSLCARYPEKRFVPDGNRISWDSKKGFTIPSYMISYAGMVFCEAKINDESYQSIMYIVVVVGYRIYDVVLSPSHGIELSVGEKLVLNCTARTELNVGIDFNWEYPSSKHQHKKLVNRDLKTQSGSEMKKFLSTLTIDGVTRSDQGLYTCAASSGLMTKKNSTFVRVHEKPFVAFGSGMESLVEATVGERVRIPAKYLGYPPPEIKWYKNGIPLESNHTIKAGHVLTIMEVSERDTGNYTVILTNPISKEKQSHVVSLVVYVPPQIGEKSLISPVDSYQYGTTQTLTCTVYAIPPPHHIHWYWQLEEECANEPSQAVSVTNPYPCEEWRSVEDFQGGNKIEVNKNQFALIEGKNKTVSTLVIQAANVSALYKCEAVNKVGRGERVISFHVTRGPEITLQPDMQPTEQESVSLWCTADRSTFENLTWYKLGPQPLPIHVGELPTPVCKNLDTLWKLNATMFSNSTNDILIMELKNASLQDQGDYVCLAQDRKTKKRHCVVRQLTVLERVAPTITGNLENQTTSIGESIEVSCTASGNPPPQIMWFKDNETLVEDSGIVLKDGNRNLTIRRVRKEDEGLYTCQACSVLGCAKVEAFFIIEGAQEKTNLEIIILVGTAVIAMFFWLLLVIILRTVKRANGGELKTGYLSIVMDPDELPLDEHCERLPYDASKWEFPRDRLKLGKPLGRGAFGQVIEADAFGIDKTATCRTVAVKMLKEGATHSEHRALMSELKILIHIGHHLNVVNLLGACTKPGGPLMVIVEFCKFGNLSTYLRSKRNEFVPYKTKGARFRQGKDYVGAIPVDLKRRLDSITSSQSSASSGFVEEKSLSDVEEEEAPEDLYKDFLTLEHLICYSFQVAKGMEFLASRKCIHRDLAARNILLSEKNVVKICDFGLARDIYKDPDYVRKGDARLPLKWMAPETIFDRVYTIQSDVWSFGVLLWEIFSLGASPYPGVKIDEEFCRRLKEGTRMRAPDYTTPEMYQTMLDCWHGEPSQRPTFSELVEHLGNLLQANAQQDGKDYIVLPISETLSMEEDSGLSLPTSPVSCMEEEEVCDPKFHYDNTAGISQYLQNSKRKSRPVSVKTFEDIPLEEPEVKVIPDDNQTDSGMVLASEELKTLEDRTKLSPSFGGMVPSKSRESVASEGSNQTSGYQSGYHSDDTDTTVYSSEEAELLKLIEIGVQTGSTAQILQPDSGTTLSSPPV
Sequence of FGFR2 (P21802 22-821): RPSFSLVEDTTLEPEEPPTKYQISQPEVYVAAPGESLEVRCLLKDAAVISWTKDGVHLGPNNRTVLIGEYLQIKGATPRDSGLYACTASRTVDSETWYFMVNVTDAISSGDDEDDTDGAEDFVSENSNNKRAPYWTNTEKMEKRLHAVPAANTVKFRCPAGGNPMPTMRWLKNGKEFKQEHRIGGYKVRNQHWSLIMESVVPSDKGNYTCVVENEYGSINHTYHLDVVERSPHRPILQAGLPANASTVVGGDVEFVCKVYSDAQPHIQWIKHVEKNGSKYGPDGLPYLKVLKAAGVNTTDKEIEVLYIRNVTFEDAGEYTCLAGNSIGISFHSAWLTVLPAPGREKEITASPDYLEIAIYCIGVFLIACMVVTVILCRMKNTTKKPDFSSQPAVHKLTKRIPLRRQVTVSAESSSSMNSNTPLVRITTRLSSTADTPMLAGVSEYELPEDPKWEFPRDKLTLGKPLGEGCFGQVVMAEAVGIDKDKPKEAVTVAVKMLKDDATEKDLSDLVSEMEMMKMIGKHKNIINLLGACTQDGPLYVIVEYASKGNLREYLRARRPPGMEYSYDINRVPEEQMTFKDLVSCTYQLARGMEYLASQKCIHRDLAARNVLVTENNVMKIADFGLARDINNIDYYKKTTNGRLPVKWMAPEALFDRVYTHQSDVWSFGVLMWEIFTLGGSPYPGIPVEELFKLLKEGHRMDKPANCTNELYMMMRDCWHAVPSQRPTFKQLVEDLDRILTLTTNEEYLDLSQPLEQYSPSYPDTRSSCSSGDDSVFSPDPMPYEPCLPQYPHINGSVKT

By IC50 is commonly meant the concentration needed to halve the response being measured. On to `C=CC(=O)Nc1cccc(-c2cccc3cnc(Nc4ccc(N5CCN(CCO)CC5)cc4)nc23)c1` [Example C059, N-(3-(2-((4-(4-(2-hydroxyethyl)piperazin-1-yl)phenyl)amino)quinazolin-8-yl)phenyl)acrylamide], for which the IC50 at KDR (VEGFR2) is below 100 nM. Take `C=CC(=O)Nc1cccc(-c2cccc3cnc(Nc4ccc(N5CCN(C)CC5)nc4)nc23)c1` [Example C041, N-(3-(2-((6-(4-methylpiperazin-1-yl)pyridin-3-yl)amino)quinazolin-8-yl)phenyl)acrylamide]: the IC50 at KDR (VEGFR2) was below 100 nM.

With `C=CC(=O)Nc1cccc(-c2cccc3cnc(Nc4ccc(N5CCN(C)CC5)cc4)nc23)c1` [Example C021, N-(3-(2-((4-(4-methylpiperazin-1-yl)phenyl)amino)quinazolin-8-yl)phenyl)acrylamide], the IC50 on KDR (VEGFR2) and on FGFR2 was below 100 nM throughout.
